# Laboratory results taken from paper PMC7796287, “Phloroglucinol Derivatives from Dryopteris crassirhizoma as Potent Xanthine Oxidase Inhibitors” (Molecules, 2020).
# Like-named read-outs stand apart in the source and are kept apart here.
# Tests used:
# xanthine oxidase (XO) = biological target: T1, xanthine oxidase (XO) (Bos taurus, UniProt P80457); test: Assay of XO-inhibitory activity and kinetics (oxidation of xanthine to uric acid, absorbance at 295 nm); format: biochemical, bovine milk; settings: for Xanthine Oxidase Kinetic Mode / Ki: Lineweaver–Burk and Dixon plots; for inhibition at 25 µM: read-out: Xanthine Oxidase Inhibition %; for Ki: read-out: Xanthine Oxidase Ki (inhibition constant); for IC50: isolated compounds and positive controls, substrate xanthine, pH 7.5, 37 °C
# T1 construct: 20 µL of 0.1 unit XO enzyme (bovine milk) in buffer; from tissue; host or cells: bovine milk
# Experimental: The extracts from four different polar solvents (EtOAc, MeOH, 50% MeOH, and H2O) were tested for their enzyme-inhibitory activities against XO. The enzyme assay followed the oxidation of xanthine to uric acid at 295 nm spectrophotometrically. […] In addition to ^13C-NMR data, various spectroscopic data were used to identify the structures. […]
# XO-inhibitory activity was assayed spectrophotometrically on a SpectraMax M2 microplate reader, using a previously reported experimental procedure with a slight modification. First, 135 µL of 100 mM sodium pyrophosphate buffer (HCl, pH 7.5), 20 µL of 0.1 unit XO enzyme (bovine milk) in buffer, and 5 µL of samples (test extracts or compounds) in dimethylsulfoxide were mixed at 37 °C. The reaction was started by adding 40 µL of substrate (0.5 mM xanthine) in buffer to the mixture. The reaction mixture (200 µL) was incubated at 37 °C in a 300 µL well plate and the UV absorbance at 295 nm was determined every 1 min up to 5 min.
# T1 sequence (P80457 whole entry): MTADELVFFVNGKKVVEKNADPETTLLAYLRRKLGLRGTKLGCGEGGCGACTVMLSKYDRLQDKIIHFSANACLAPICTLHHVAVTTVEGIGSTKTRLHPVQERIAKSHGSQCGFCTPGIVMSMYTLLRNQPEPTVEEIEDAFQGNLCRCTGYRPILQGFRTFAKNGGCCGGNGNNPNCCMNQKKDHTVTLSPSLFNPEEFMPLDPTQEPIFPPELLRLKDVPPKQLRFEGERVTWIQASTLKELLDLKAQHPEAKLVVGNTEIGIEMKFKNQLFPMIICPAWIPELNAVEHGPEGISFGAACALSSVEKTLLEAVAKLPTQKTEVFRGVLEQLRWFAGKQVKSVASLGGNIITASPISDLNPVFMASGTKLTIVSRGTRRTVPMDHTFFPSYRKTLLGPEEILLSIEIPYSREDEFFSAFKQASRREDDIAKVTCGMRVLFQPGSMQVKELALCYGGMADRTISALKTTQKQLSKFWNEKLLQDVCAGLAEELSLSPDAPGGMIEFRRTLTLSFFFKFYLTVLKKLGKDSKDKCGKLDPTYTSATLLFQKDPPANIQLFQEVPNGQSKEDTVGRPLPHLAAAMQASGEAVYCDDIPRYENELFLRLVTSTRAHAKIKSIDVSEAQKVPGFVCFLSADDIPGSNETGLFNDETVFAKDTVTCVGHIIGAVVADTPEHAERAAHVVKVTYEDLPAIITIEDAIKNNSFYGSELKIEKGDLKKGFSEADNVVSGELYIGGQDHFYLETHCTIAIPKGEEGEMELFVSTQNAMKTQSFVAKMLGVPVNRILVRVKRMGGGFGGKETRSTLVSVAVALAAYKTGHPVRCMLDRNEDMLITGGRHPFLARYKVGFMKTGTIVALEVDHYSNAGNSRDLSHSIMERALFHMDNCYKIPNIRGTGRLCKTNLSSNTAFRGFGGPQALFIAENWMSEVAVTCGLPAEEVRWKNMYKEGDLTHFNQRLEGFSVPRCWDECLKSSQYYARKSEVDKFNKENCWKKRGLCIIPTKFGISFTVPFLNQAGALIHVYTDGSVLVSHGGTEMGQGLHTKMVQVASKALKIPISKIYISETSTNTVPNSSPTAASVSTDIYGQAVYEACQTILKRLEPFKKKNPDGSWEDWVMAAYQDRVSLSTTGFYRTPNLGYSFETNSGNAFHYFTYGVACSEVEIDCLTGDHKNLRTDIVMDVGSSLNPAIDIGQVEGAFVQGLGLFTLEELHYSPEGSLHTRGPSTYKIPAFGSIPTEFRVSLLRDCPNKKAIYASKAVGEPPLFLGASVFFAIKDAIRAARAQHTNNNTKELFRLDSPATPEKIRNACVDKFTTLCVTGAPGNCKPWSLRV
Compound,Xanthine Oxidase Kinetic Mode (xanthine oxidase (XO)),inhibition at 25 µM (xanthine oxidase (XO)) [%],Ki (xanthine oxidase (XO)) [µM],"efficacy of 1 relative to 4 (fold, from IC50) (xanthine oxidase (XO); XO inhibition, compared with 4 (IC50 = 20.9 µM)) [fold]",Reversibility of XO inhibition (xanthine oxidase (XO); activity versus enzyme concentration (0-0.2 units/mL) at different inhibitor concentrations),IC50 (xanthine oxidase (XO)) [µM],inhibition at 25 µM (xanthine oxidase (XO); sample concentration 25 µM) [%],melting point [°C]
"Oc1ncnc2[nH]ncc12 [Allopurinol, reference compound]",Competitive,82.5 ± 1.7,,,,,,
"CCC(=O)c1c(O)c(C)c(O)c(CC2=C(O)C(C)(C)C(O)=C(C(C)=O)C2=O)c1O [Compound 1, flavaspidic acid AP]",noncompetitive inhibitor,,7.8,~4,reversible inhibitor,6.3 ± 0.4,79.6 ± 1.6,
"CCCC(=O)c1c(O)c(C)c(O)c(CC2=C(O)C(C)(C)C(O)=C(C(C)=O)C2=O)c1O [Compound 2, flavaspidic acid AB]",Noncompetitive,,11.7,,,10.2 ± 0.5,68.1 ± 1.3,158 to 160
"CCCC(=O)c1c(O)c(C)c(O)c(CC2=C(O)C(C)(C)C(O)=C(C(=O)CC)C2=O)c1O [Compound 3, flavaspidic acid PB]",Noncompetitive,,15.3,,,13.2 ± 0.6,62.1 ± 0.9,156 to 158
"CCCC(=O)C1=C(O)C(C)(C)C(O)=C(Cc2c(O)c(C)c(O)c(C(=O)CCC)c2O)C1=O [Compound 4, 2-butyryl-6-(3-butyryl-2,4,6-trihydroxy-5-methylbenzyl)-3,5-dihydroxy-4,4-dimethylcyclohexa-2,5-dienone]",Noncompetitive,,21.1,,,20.9 ± 0.9,54.4 ± 1.5,
"O=c1[nH]c(=O)c2c[nH]nc2[nH]1 [Oxypurinol, reference compound]",,,,,,43.1 ± 0.8,42.2 ± 1.2,
